Read-outs that look alike come from different tables or passages of the source.
Columns and labels:
SKCa channel = assay: Cerep binding; details: 10 μM; [125I]apamin; rat cerebral cortex
Dopamine transporter = system: T1, Dopamine transporter; assay: Cerep binding; parameters: species or system human; details: 10 μM; [3H]BTCP; hum. recomb. (CHO)
T1 construct: host or cells: CHO

[1] = Pharmacokinetics, single intravenous dosing; type: in vivo; details: Beagle, dog, plasma, 1.0 mg/kg i.v.
Na+ channel (site 2) = assay: Cerep binding; details: 10 μM; [3H]batrachotoxinin; rat cerebral cortex
Endothelin ETA = system: T2, Endothelin ETA; assay: Cerep binding; parameters: species or system human; details: 10 μM; [125I]endothelin-1; hum. recomb. (CHO)
T2 construct: purchased Eurofins Cerep

Vasopressin V1A = system: T3, Vasopressin V1A; assay: Cerep binding; parameters: species or system human; details: 10 μM; [3H]AVP; hum. recomb. (CHO)
T3 construct: host or cells: CHO

Benzodiazepine (central) = assay: Cerep binding; details: 10 μM; [3H]flunitrazepam; rat cerebral cortex
Bombesin (non-selective) = assay: Cerep binding; details: 10 μM; [125I][Tyr4]bombesin; rat cerebral cortex
Adenosine A1 = system: T4, Adenosine A1; assay: Cerep binding; parameters: species or system human; details: 10 μM; [3H]DPCPX; hum. recomb. (CHO)
T4 construct: host or cells: CHO

GABAA-α5 receptors = molecular target: T5, GABAA-α5 receptors (Homo sapiens, UniProt P18507+P31644); assay: Receptor occupancy during EEG assessments; type: in vivo; details: 240 mg twice daily
T5 construct: occupancy at the GABAA-α5 subunit-containing receptors in the human brain after oral dosing; from tissue; host or cells: brain of healthy human volunteers, in vivo PET
T5 sequence (P31644 32-462): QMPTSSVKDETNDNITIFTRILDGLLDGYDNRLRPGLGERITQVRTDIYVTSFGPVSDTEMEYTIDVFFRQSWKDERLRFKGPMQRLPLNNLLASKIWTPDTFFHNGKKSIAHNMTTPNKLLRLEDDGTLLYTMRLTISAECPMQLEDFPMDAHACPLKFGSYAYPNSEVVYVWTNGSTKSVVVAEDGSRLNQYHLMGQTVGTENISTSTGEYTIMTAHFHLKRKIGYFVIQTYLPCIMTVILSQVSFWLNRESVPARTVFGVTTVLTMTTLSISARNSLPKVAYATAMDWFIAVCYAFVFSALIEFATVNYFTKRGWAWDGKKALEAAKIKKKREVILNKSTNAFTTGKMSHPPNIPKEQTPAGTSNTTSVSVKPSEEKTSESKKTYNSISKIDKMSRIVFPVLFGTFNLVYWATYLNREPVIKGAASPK
T5 sequence (P18507 40-467 limits assumed): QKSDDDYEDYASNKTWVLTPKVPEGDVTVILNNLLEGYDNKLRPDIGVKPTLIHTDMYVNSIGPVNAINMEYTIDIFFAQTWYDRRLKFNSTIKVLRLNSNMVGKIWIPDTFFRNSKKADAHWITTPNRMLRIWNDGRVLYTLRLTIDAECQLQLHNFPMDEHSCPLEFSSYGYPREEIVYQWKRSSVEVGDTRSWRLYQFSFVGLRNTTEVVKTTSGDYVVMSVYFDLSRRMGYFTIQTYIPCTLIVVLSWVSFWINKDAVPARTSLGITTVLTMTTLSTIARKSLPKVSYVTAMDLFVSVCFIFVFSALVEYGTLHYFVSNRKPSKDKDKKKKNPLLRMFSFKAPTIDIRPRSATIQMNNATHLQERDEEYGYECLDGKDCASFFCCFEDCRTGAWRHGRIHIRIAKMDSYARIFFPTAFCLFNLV
T5 sequence (P28472 26-473 partner): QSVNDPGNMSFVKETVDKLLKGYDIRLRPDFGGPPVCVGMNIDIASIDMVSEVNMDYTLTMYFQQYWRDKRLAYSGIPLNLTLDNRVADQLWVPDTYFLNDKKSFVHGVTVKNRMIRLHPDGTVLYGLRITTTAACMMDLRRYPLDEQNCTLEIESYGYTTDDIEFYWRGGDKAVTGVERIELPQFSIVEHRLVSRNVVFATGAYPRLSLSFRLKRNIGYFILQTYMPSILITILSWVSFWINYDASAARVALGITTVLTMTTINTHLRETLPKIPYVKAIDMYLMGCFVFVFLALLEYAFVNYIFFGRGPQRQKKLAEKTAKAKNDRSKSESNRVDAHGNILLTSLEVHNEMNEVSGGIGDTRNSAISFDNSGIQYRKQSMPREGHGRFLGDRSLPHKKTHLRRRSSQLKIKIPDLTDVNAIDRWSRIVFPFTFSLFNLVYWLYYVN

[2] = system: T6, Vasoactive intestinal peptide PAC1 (PACAP); assay: Cerep binding; parameters: species or system human; details: 10 μM; [125I]PACAP1-27; hum. recomb. (CHO)
T6 construct: host or cells: CHO

[3] = system: T7, Norepinephrine transporter; assay: Cerep binding; parameters: species or system human; details: 10 μM; [3H]nisoxetine; hum. recomb. (CHO)
T7 construct: host or cells: CHO

Dopamine D2S = system: T8, Dopamine D2S; assay: Cerep binding; parameters: species or system human; details: 10 μM; [3H]spiperone; hum. recomb. (HEK-293)
T8 construct: host or cells: HEK-293

Dopamine D3 = system: T9, Dopamine D3; assay: Cerep binding; parameters: species or system human; details: 10 μM; [3H]spiperone; hum. recomb. (CHO)
T9 construct: host or cells: CHO

SMILES: Cc1onc(-c2ccc(F)cc2)c1COc1ccc(C(=O)N2CCS(=O)(=O)CC2)cn1 [basmisanil]
- % Inhibition (SKCa channel): 3%
- % Inhibition (Dopamine transporter): 19%
- half-life ([1]; n=3): 9.8 ± 0.8 h
- clearance ([1]; n=3, read-out: Total CL): 2.2 ± 0.2 mL/min/kg
- Vd ([1]; n=3, read-out: Vss): 1.7 ± 0.2 L/kg
- % Inhibition (Na+ channel (site 2)): 0%
- % Inhibition (Endothelin ETA): 8%
- % Inhibition (Vasopressin V1A): 13%
- % Inhibition (Benzodiazepine (central)): 76%
- % Inhibition (Bombesin (non-selective)): -24%
- % Inhibition (Adenosine A1): 28%
- receptor occupancy at 240 mg (GABAA-α5 receptors; 14 days, read-out: occupancy of GABAA-α5 receptors): > 90%
- receptor occupancy at 240 mg (GABAA-α5 receptors; day 14, 1 h post morning dose, read-out: receptor occupancy): 92 ± 3%
- receptor occupancy at 240 mg (GABAA-α5 receptors; day 14, 4 h post morning dose, read-out: receptor occupancy): 94 ± 1.5%
- % Inhibition [2]: -16%
- % Inhibition [3]: 11%
- % Inhibition (Dopamine D2S): 9%
- % Inhibition (Dopamine D3): 3%
